≈ marks a conversion by molar mass, not a printed value.
Columns and labels:
Assay type in all cases: cell-based
[1] = system: Pasteurella multocida PM 6267 (P 2225 (L386), reference strain, mouse infection strain); assay: MIC, broth-microdilution (CLSI VET01-A4), strain PM 6267; details: Pasteurella multocida strain PM 6267, broth-microdilution; unit assumed
Method in brief: (§1)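 Growth inhibition is scored visually on a doubling dilution series. The reported MIC corresponds to the lowest concentration free of turbidity, with results assessed under CLSI VET01-S3.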

[2] = system: Mannheimia haemolytica MH 6357 (M7/2, reference strain, cattle infection strain); assay: MIC, broth-microdilution (CLSI VET01-A4), strain MH 6357; details: Mannheimia haemolytica strain MH 6357, broth-microdilution; unit assumed
Method in brief: as §1

[3] = system: Pasteurella multocida PM 10775 (080130003051, BRD field isolate); assay: MIC, broth-microdilution (CLSI VET01-A4), strain PM 10775; details: Pasteurella multocida strain PM 10775, broth-microdilution; unit assumed
Method in brief: as §1

[4] = system: Mannheimia haemolytica MH 10720 (154, BRD field isolate); assay: MIC, broth-microdilution (CLSI VET01-A4), strain MH 10720; details: Mannheimia haemolytica strain MH 10720, broth-microdilution; unit assumed
Method in brief: as §1

[5] = system: Mannheimia haemolytica MH 13065 (XB0446-6003.9, BRD field isolate); assay: MIC, broth-microdilution (CLSI VET01-A4), strain MH 13065; details: Mannheimia haemolytica strain MH 13065, broth-microdilution; unit assumed
Method in brief: as §1

[6] = system: Mannheimia haemolytica MH 13093 (XB0472-6014.1, BRD field isolate); assay: MIC, broth-microdilution (CLSI VET01-A4), strain MH 13093; details: Mannheimia haemolytica strain MH 13093, broth-microdilution; unit assumed
Method in brief: as §1

[7] = system: Pasteurella multocida PM 6391 (ATCC 43137, reference strain); assay: MIC, broth-microdilution (CLSI VET01-A4), strain PM 6391; details: Pasteurella multocida strain PM 6391, broth-microdilution; unit assumed
Method in brief: as §1

[8] = system: Mannheimia haemolytica MH 12587 (1071, BRD field isolate, macrolide-resistance: erm+, E+); assay: MIC, broth-microdilution (CLSI VET01-A4), strain MH 12587; details: Mannheimia haemolytica strain MH 12587, broth-microdilution; unit assumed
Method in brief: as §1

[9] = system: Mannheimia haemolytica MH 6374 (ATCC 33396, reference strain); assay: MIC, broth-microdilution (CLSI VET01-A4), strain MH 6374; details: Mannheimia haemolytica strain MH 6374, broth-microdilution; unit assumed
Method in brief: as §1

[10] = system: Pasteurella multocida PM 12080 (IV102277-0093, BRD field isolate); assay: MIC, broth-microdilution (CLSI VET01-A4), strain PM 12080; details: Pasteurella multocida strain PM 12080, broth-microdilution; unit assumed
Method in brief: as §1

MIC PM 6267 [1] [µg/mL] | MIC PM 10775 [3] [µg/mL] | MIC PM 6391 [7] [µg/mL] | MIC PM 12080 [10] [µg/mL] | SMILES | MIC MH 6357 [2] [µg/mL] | MIC MH 10720 [4] [µg/mL] | MIC MH 13065 [5] [µg/mL] | MIC MH 13093 [6] [µg/mL] | MIC MH 12587 [8] [µg/mL] | MIC MH 6374 [9] [µg/mL]
0.8 (≈ 1.96 µM) | ≤ 0.1 | 3.1 (≈ 7.61 µM) | 1.6 (≈ 3.93 µM) | CCNCc1ccc(C#Cc2ccc(C(=O)N[C@H](C(=O)NO)[C@@H](C)CC)cc2)cc1 [Compound 176] | 3.1 (≈ 7.61 µM) | 3.1 (≈ 7.61 µM) | 6.3 (≈ 15.5 µM) | 12.5 (≈ 30.7 µM) | 12.5 (≈ 30.7 µM) | 6.3 (≈ 15.5 µM)
≤ 0.1 | ≤ 0.1 | ≤ 0.1 | ≤ 0.1 | CC(C)(O)[C@H](NC(=O)c1ccc(C#Cc2ccc(CNCc3ccco3)cc2)cc1)C(=O)NO [Compound 231] | 0.4 (≈ 0.867 µM) | ≤ 0.1 | 0.2 (≈ 0.433 µM) | 0.4 (≈ 0.867 µM) | 0.8 (≈ 1.73 µM) | 0.2 (≈ 0.433 µM)
≤ 0.1 | ≤ 0.1 | 0.4 (≈ 0.797 µM) | ≤ 0.1 | COc1ccc(CNCc2ccc(C#Cc3ccc(C(=O)N[C@H](C(=O)NO)C(C)(C)O)cc3)cc2)cc1 [Compound 224] | 0.8 (≈ 1.59 µM) | ≤ 0.1 | 0.8 (≈ 1.59 µM) | 0.8 (≈ 1.59 µM) | 1.6 (≈ 3.19 µM) | 0.8 (≈ 1.59 µM)
0.8 (≈ 1.88 µM) | 0.2 (≈ 0.469 µM) | 1.6 (≈ 3.75 µM) | 0.8 (≈ 1.88 µM) | CC(C)(O)[C@H](NC(=O)c1ccc(C#Cc2ccc(CNCC#N)s2)cc1)C(=O)NO [Compound 358] | 3.1 (≈ 7.27 µM) | 0.8 (≈ 1.88 µM) | 6.3 (≈ 14.8 µM) | 6.3 (≈ 14.8 µM) | 6.3 (≈ 14.8 µM) | 1.6 (≈ 3.75 µM)
1.6 (≈ 3.26 µM) | 0.4 (≈ 0.815 µM) | ≤ 0.1 | ≤ 0.1 | CON=C(C)[C@H](NC(=O)c1ccc(C#Cc2ccc(CNCc3cccs3)cc2)cc1)C(=O)NO [Compound 392] | 0.4 (≈ 0.815 µM) | 0.4 (≈ 0.815 µM) | 0.4 (≈ 0.815 µM) | 0.4 (≈ 0.815 µM) | ≤ 0.1 | 0.4 (≈ 0.815 µM)
0.4 (≈ 0.812 µM) | ≤ 0.1 | ≤ 0.1 | ≤ 0.1 | CC(C)(C(NC(=O)c1ccc(C#Cc2ccc(CNCC(F)(F)F)cc2)cc1)C(=O)NO)[N+](=O)[O-] (stereo not shown) [Compound 288] | 0.4 (≈ 0.812 µM) | ≤ 0.1 | 0.4 (≈ 0.812 µM) | 0.8 (≈ 1.62 µM) | 0.8 (≈ 1.62 µM) | 0.8 (≈ 1.62 µM)
≤ 0.1 | ≤ 0.1 | 0.4 (≈ 0.886 µM) | 0.4 (≈ 0.886 µM) | CC1CN(Cc2ccc(C#Cc3ccc(C(=O)N[C@@H](CO)C(=O)NO)cc3)cc2)CC(C)O1 (stereo partly shown) [Compound 155] | 12.5 (≈ 27.7 µM) | 1.6 (≈ 3.54 µM) | 12.5 (≈ 27.7 µM) | 25 (≈ 55.4 µM) | 25 (≈ 55.4 µM) | 12.5 (≈ 27.7 µM)
0.4 (≈ 0.786 µM) | ≤ 0.1 | 0.4 (≈ 0.786 µM) | ≤ 0.1 | CSC(C)(C)[C@H](NC(=O)c1ccc(C#Cc2ccc(CNCc3ccncc3)s2)cc1)C(=O)NO [Compound 364] | 0.8 (≈ 1.57 µM) | 0.2 (≈ 0.393 µM) | 0.8 (≈ 1.57 µM) | 0.8 (≈ 1.57 µM) | 1.6 (≈ 3.15 µM) | 0.8 (≈ 1.57 µM)
1.6 (≈ 3.18 µM) | 0.2 (≈ 0.397 µM) | 0.8 (≈ 1.59 µM) | 0.4 (≈ 0.794 µM) | CSC(C)(C)[C@H](NC(=O)c1ccc(C#Cc2ccc(CNCc3ccncc3)nc2)cc1)C(=O)NO [Compound 341] | 0.8 (≈ 1.59 µM) | 0.2 (≈ 0.397 µM) | 1.6 (≈ 3.18 µM) | 1.6 (≈ 3.18 µM) | 3.1 (≈ 6.16 µM) | 1.6 (≈ 3.18 µM)
≤ 0.1 | ≤ 0.1 | 0.4 (≈ 0.859 µM) | 0.2 (≈ 0.43 µM) | CC(C)(O)C(NC(=O)c1ccc(C#Cc2ccc(CNCC3CCCO3)cc2)cc1)C(=O)NO (stereo not shown) [Compound 234] | 6.3 (≈ 13.5 µM) | 0.4 (≈ 0.859 µM) | 3.1 (≈ 6.66 µM) | 6.3 (≈ 13.5 µM) | 6.3 (≈ 13.5 µM) | 3.1 (≈ 6.66 µM)
≤ 0.1 | ≤ 0.1 | 0.2 (≈ 0.407 µM) | ≤ 0.1 | CSC(C)(C)[C@H](NC(=O)c1ccc(C#Cc2ccc(CNCc3ccco3)cc2)cc1)C(=O)NO [Compound 250] | 0.4 (≈ 0.814 µM) | ≤ 0.1 | 0.4 (≈ 0.814 µM) | 0.4 (≈ 0.814 µM) | 0.8 (≈ 1.63 µM) | 0.8 (≈ 1.63 µM)
≤ 0.1 | ≤ 0.1 | 0.2 (≈ 0.446 µM) | ≤ 0.1 | CC(C)[C@H](NC(=O)c1ccc(C#Cc2ccc(CN3CCN(C)CC3)cc2)cc1)C(=O)NO [Compound 211] | 3.1 (≈ 6.91 µM) | 1.6 (≈ 3.57 µM) | 6.3 (≈ 14 µM) | 6.3 (≈ 14 µM) | 12.5 (≈ 27.9 µM) | 12.5 (≈ 27.9 µM)
0.4 (≈ 0.9 µM) | ≤ 0.1 | 0.8 (≈ 1.8 µM) | 0.8 (≈ 1.8 µM) | O=C(N[C@@H](CO)C(=O)NO)c1ccc(C#Cc2ccc(CNCc3ccccn3)cc2)cc1 [Compound 158] | 1.6 (≈ 3.6 µM) | 0.8 (≈ 1.8 µM) | 6.3 (≈ 14.2 µM) | 6.3 (≈ 14.2 µM) | 6.3 (≈ 14.2 µM) | 3.1 (≈ 6.97 µM)
0.4 (≈ 0.982 µM) | ≤ 0.1 | 1.6 (≈ 3.93 µM) | 1.6 (≈ 3.93 µM) | O=C(N[C@@H](CO)C(=O)NO)c1ccc(C#Cc2ccc(CNC3CCC3)cc2)cc1 [Compound 147] | 3.1 (≈ 7.61 µM) | 3.1 (≈ 7.61 µM) | 6.3 (≈ 15.5 µM) | 6.3 (≈ 15.5 µM) | 6.3 (≈ 15.5 µM) | 6.3 (≈ 15.5 µM)
0.2 (≈ 0.418 µM) | ≤ 0.1 | 0.4 (≈ 0.835 µM) | 0.4 (≈ 0.835 µM) | O=C(N[C@@H](CO)C(=O)NO)c1ccc(C#Cc2ccc(CNCc3ccnc(Cl)c3)cc2)cc1 [Compound 214] | 1.6 (≈ 3.34 µM) | 0.8 (≈ 1.67 µM) | 3.1 (≈ 6.47 µM) | 3.1 (≈ 6.47 µM) | 6.3 (≈ 13.2 µM) | 1.6 (≈ 3.34 µM)
0.2 (≈ 0.367 µM) | ≤ 0.1 | ≤ 0.1 | ≤ 0.1 | Cc1cnc(CNCc2ccc(C#Cc3ccc(C(=O)N[C@H](C(=O)NO)C(C)(C)S(C)(=O)=O)cc3)s2)o1 [Compound 323] | 0.2 (≈ 0.367 µM) | ≤ 0.1 | 0.4 (≈ 0.734 µM) | 0.8 (≈ 1.47 µM) | 0.8 (≈ 1.47 µM) | 0.2 (≈ 0.367 µM)
0.8 (≈ 1.42 µM) | ≤ 0.1 | 0.4 (≈ 0.708 µM) | 0.2 (≈ 0.354 µM) | COc1ccc(CNCc2ccc(C#Cc3ccc(C(=O)N[C@H](C(=O)NO)C(C)(C)S(C)(=O)=O)cc3)cn2)cc1 [Compound 352] | 0.8 (≈ 1.42 µM) | 0.2 (≈ 0.354 µM) | 1.6 (≈ 2.83 µM) | 1.6 (≈ 2.83 µM) | 3.1 (≈ 5.49 µM) | 0.8 (≈ 1.42 µM)
≤ 0.1 | ≤ 0.1 | 0.4 (≈ 0.815 µM) | 0.2 (≈ 0.407 µM) | CC(C)[C@H](NC(=O)c1ccc(C#Cc2ccc(CNCc3ccnc(Cl)c3)cc2)cc1)C(=O)NO [Compound 168] | 0.4 (≈ 0.815 µM) | 0.2 (≈ 0.407 µM) | 0.8 (≈ 1.63 µM) | 0.8 (≈ 1.63 µM) | 1.6 (≈ 3.26 µM) | 0.8 (≈ 1.63 µM)
1.6 (≈ 3.28 µM) | ≤ 0.1 | 0.4 (≈ 0.82 µM) | 0.4 (≈ 0.82 µM) | CSC(C)(C)[C@H](NC(=O)c1ccc(C#Cc2ccc(CN3CCOCC3)s2)cc1)C(=O)NO [Compound 303] | 0.2 (≈ 0.41 µM) | 0.4 (≈ 0.82 µM) | 1.6 (≈ 3.28 µM) | 1.6 (≈ 3.28 µM) | 1.6 (≈ 3.28 µM) | 1.6 (≈ 3.28 µM)
≤ 0.1 | ≤ 0.1 | 0.4 (≈ 0.923 µM) | 0.2 (≈ 0.461 µM) | CC(C)[C@H](NC(=O)c1ccc(C#Cc2ccc(CNC3CCCC3)cc2)cc1)C(=O)NO [Compound 209] | 3.1 (≈ 7.15 µM) | 1.6 (≈ 3.69 µM) | 6.3 (≈ 14.5 µM) | 12.5 (≈ 28.8 µM) | 12.5 (≈ 28.8 µM) | 6.3 (≈ 14.5 µM)
0.8 (≈ 1.58 µM) | 0.4 (≈ 0.79 µM) | 0.4 (≈ 0.79 µM) | ≤ 0.1 | CC(C)(C(NC(=O)c1ccc(C#Cc2ccc(CNCc3cccs3)cc2)cc1)C(=O)NO)[N+](=O)[O-] (stereo not shown) [Compound 289] | 0.4 (≈ 0.79 µM) | ≤ 0.1 | 0.8 (≈ 1.58 µM) | 0.8 (≈ 1.58 µM) | 1.6 (≈ 3.16 µM) | 0.8 (≈ 1.58 µM)
0.8 (≈ 1.61 µM) | ≤ 0.1 | 0.4 (≈ 0.804 µM) | 0.4 (≈ 0.804 µM) | CSC(C)(C)[C@H](NC(=O)c1ccc(C#Cc2ccc(CNCc3ccco3)s2)cc1)C(=O)NO [Compound 308] | 0.8 (≈ 1.61 µM) | ≤ 0.1 | 0.8 (≈ 1.61 µM) | 1.6 (≈ 3.22 µM) | 1.6 (≈ 3.22 µM) | 0.8 (≈ 1.61 µM)

From patent publication US11034650B2, “Compounds useful for treating a Mannheimia haemolytica or Histophilus somni infection” (Intervet Inc., priority 2016, dated 2021)
